Data reported in publication PMC8388125, “Kinetic and Structural Characterization of the Self-Labeling Protein Tags HaloTag7, SNAP-tag, and CLIP-tag” (Biochemistry, 2021).
Numbering of substitutions follows the chain as printed.

Experiments:
Assay type in all cases: biochemical
SNAP-tag (SNAP) = target: T1, SNAP-tag (SNAP) (Homo sapiens, UniProt P16455, A127T/A154D/C150Q/C62A/G131K/G132T/G153L/K125A/K32I/L33F/M134L/N157G/Q115S/Q116H/R128A/R135S/S151G/S152D/S159E); test: SNAP labeling kinetics via microplate reader (FP over time)
T1 construct: made in house; host or cells: E. coli BL21(DE3)-pLysS
T1 sequence (P16455 1-182 K32I/L33F/C62A/Q115S/Q116H/K125A/A127T/R128A/G131K/G132T/M134L/R135S/C150Q/S151G/S152D/G153L/A154D/N157G/S159E limits assumed): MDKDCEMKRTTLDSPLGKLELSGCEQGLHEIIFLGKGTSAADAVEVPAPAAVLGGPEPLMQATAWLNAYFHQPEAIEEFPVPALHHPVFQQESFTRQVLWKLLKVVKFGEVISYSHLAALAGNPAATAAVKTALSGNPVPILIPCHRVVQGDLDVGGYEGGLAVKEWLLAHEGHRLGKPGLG
Method: (§1) Labeling kinetics of SNAP and CLIP substrates were measured by recording FP over time using a microplate reader in a manner analogous to that of HT7 labeling kinetics described above with the following changes. The fluorescent substrate concentration was fixed to 20 nM, and protein concentrations were varied from 15 to 900 nM. Measurements were performed in SNAP-FP buffer.
(§2) Kinetic data from microplate reader assays were fitted to a simplified kinetic model (eq 13) described by differential eqs 14–16 using DynaFit. The dead time of the measurements and baseline FP value were put in as fixed parameters. Standard deviations (normal distribution verified) and confidence intervals of fitted parameters were estimated with the Monte Carlo method with standard settings (N = 1000, 5% worst fits discarded). In the case of BG, CP, and BC kinetics, the substrate concentration was fitted by DynaFit to rule out quantification errors of the BG, CP, or BC fluorophores. Accurate fitting of the concentration was ensured by including conditions under which protein is limiting and no maximum FP value was reached.

CLIP-tag (CLIP) = target: T2, CLIP-tag (CLIP) (Homo sapiens, UniProt P16455, A121V/A127T/A154D/C150Q/C62A/G131N/G132T/G153S/K125A/K32I/L33F/M134L/M60I/N157P/Q115S/Q116H/R128A/R135D/S151G/S152D/S159L/Y114E); test: CLIP labeling kinetics via microplate reader (FP over time); conditions: CLIP, plate reader, kinetic model 1
T2 construct: made in house; host or cells: E. coli BL21(DE3)-pLysS
T2 sequence (P16455 1-182 K32I/L33F/M60I/C62A/Y114E/Q115S/Q116H/A121V/K125A/A127T/R128A/G131N/G132T/M134L/R135D/C150Q/S151G/S152D/G153S/A154D/N157P/S159L limits assumed): T1 sequence (P16455 1-182 K32I/L33F/C62A/Q115S/Q116H/K125A/A127T/R128A/G131K/G132T/M134L/R135S/C150Q/S151G/S152D/G153L/A154D/N157G/S159E limits assumed) with M60I, Y114E, A121V, K131N, S135D, L153S, G157P, E159L
Method: as §1, §2

CLIPf (CLIP^E30R) = target: T3, CLIPf (CLIP^E30R) (Homo sapiens, UniProt P16455, A121V/A127T/A154D/C150Q/C62A/E30R/G131N/G132T/G153S/K125A/K32I/L33F/M134L/M60I/N157P/Q115S/Q116H/R128A/R135D/S151G/S152D/S159L/Y114E); test: CLIPf labeling kinetics via microplate reader (FP over time); conditions: plate reader
T3 construct: made in house; host or cells: E. coli BL21(DE3)-pLysS
T3 sequence (P16455 1-182 E30R/K32I/L33F/M60I/C62A/Y114E/Q115S/Q116H/A121V/K125A/A127T/R128A/G131N/G132T/M134L/R135D/C150Q/S151G/S152D/G153S/A154D/N157P/S159L limits assumed): T1 sequence (P16455 1-182 K32I/L33F/C62A/Q115S/Q116H/K125A/A127T/R128A/G131K/G132T/M134L/R135S/C150Q/S151G/S152D/G153L/A154D/N157G/S159E limits assumed) with E30R, M60I, Y114E, A121V, K131N, S135D, L153S, G157P, E159L
Method: as §1, §2

[1] = target: T4, hAGT (human O^6-alkylguanine-DNA alkyltransferase) (Homo sapiens, UniProt P16455); test: hAGT labeling kinetics via microplate reader (FP over time); conditions: hAGT vs CLIP
T4 construct: StrepTag-II (N); enterokinase cleavage site (N); His10 (C); made in house; host or cells: E. coli BL21(DE3)-pLysS
T4 sequence (P16455 1-207): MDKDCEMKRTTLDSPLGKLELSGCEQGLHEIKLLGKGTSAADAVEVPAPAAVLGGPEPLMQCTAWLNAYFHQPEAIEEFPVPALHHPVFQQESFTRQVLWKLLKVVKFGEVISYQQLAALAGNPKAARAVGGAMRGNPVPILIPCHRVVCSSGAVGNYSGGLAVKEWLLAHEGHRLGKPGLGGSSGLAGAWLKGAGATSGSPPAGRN
Method: as §1, §2

CN(C)c1ccc2c(-c3cc(C(=O)NCc4ccc(COc5nccc(N)n5)cc4)ccc3C(=O)[O-])c3ccc(=[N+](C)C)cc-3oc2c1 [BC-TMR]
times slower reaction of SNAP than with BG-TMR (SNAP-tag (SNAP); SNAP cross-reactivity): more than 1000 times | kapp (value ± standard deviation) (SNAP-tag (SNAP); SNAP, plate reader, kinetic model 1): (3.20 ± 0.02) × 10^2 M^–1 s^–1 | kapp (value ± standard deviation) (CLIP-tag (CLIP)): (1.85 ± 0.01) × 10^4 M^–1 s^–1 | kapp (CLIPf (CLIP^E30R)): (3.37 ± 0.01) × 10^4 M^–1 s^–1 | times slower reaction with hAGT than with CLIP [1]: 25000 times
